# Assay results taken from patent US9555032B2, “Methods for treatment and prevention of tauopathies and amyloid beta amyloidosis by modulating CRF receptor signaling” (Research Development Foundation, priority 2007, dated 2017).
# Entries after “also recorded” stand apart in the source; their conditions may differ.
# What was measured:
# [1] = Gerhlert et al., 2007; cited from earlier work
# [2] = Gerhlert et al., 2007; cited from earlier work; remark: listed apart in the source
# [3] = test system: tau phosphorylation (tau-P) at the AT8 and PHF-1 sites; assay: Acute restraint stress-induced tau phosphorylation, Western blot of hippocampal extracts, CRF-R1 antagonist pretreatment; format: in vivo, mouse
# Description: Acute restraint stress involved placing mice in ventilated 50 ml conical tubes for 30 min; repeated stress involved 14 consecutive daily exposures. Animals were killed at various intervals ranging from 20 min to 24 hr after stress. Control mice were handled comparably, but were not otherwise manipulated.
# The small molecule, CRF-R1-selective antagonist, antalarmin (Webster et al., 1996), was administered at 20 mg/kg by intraperitoneal (ip) injection 20 min before stress exposure. All animals were handled twice daily for 28 d prior to experimentation, and received daily mock ip injections to minimize stress of injection at testing. […]
# After sedation, the animals were decapitated and the hippocampus was rapidly dissected and frozen on dry ice. […] Protein concentrations were determined using a BCA Protein Assay Kit (Pierce Biotechnology, Rockford, Ill.). […] Primary antibodies were detected with either anti-mouse or rabbit horseradish peroxidase-linked secondary antibodies (1:1000 Calbiochem, San Diego, Calif.) and developed with an enhanced chemiluminescence Western blot detection kit (Supersignal West Pico, Pierce Biotechnology). Background subtraction was performed and quantitative band intensity readings were obtained using NIH Image software. […]
# [4] = test system: PS/APP mouse AD model (amyloid plaques); assay: Amyloid plaque density in PS/APP transgenic mouse AD model with or without chronic variable stress; format: in vivo; settings: antalarmin 40 mg/kg/d ip; for density of plaques in cortex and hippocampus: sacrificed end of fifth month
# From the text: The PS/APP mouse line was originally purchased from another research laboratory. These mice express the Swedish familial AD mutation of human amyloid precursor protein (APP) (APPK670N,M671L; line Tg2576) and the familial AD mutation of presenilin-1 (PSEN1-dE9) (Jankowsky et al., 2001). Hemizygous double mutant PS/APP offspring and non-transgenic mice were used in experimentation, as it has been reported that homozygote lines of Tg2576 cannot be generated (McGowan et al., 1999). Genotypes were determined by PCR analysis of ear or tail DNA.
# For acute stress experiments, CRFR1-selective small molecule antagonist, antalarmin (Webster et al., 1996), was administered at 20 mg/kg by intraperitoneal (ip) injection 20 min before stress exposure. All animals were handled twice daily for at least 14d prior to experimentation, and receive daily mock ip injections to minimize stress of injection at testing. Antalarmin was solubilized in equal volumes of absolute ethanol and Cremaphor EL (Sigma-Aldrich, St. Louis, Mo.), as described (Webster et al., 1996; Pernar et al., 2004). This stock solution was diluted in prewarmed (50° C.) distilled water and adjusted to a final concentration of 4 mg/ml immediately prior to injection. For chronic administration, antalarmin was administered twice daily via ip injection (Wong et al., 1999).
# CVS involved daily exposure to either two brief or one sustained stressor over 15d. Brief stressors included elevated plus maze exposure (30 min), shaker stress (30 min on an orbital shaker at 100 rpm), ip hypertonic saline injection (0.4 ml of 1.5M saline), restraint (30 min), tail suspension (10 min) and forced swimming (10 min in RT water). […]
# There was no evidence of tau pathology (tangle formation), nor was it expected to develop in animals at this early stage of disease progression. […] While it remains to be determined whether this effect will maintain in older animals, and whether drug and/or stress exposure will affect tau pathology, the results provide an additional endorsement for considering CRFR1 as a therapeutic target in AD.
# [5] = test system: hippocampal tau-P (PHF-1 immunoreactivity); assay: Intracerebroventricular CRF injection, PHF-1 immunohistochemistry of hippocampus; format: in vivo, mouse; settings: 0.5 μg CRF icv, 40 min after administration
# From the text: CRF-R1−/− (U.S. Pat. No. 6,147,275) and CRF-R2−/− (U.S. Pat. No. 6,353,152) mice, along with age-matched wt controls (n=3/group), were anesthetized with isoflurane, and implanted stereotaxically with 26-ga guide cannulae (Plastics One, Wallingford, Conn.) aimed to terminate above the lateral ventricle. Cannulae were affixed to the skull with dental acrylic adhering to jeweler's screws partially driven into the skull, and sealed externally with stylets. After 7 d recovery, stylets were replaced with 33-ga injection cannulae, and 2 hr later the animals were remotely injected with 0.5 μg synthetic mouse/human CRF in […] saline, or vehicle alone, over ˜1 min. To approximate the time frame used in acute stress experiments, animals were killed 40 min after icy injection and perfused for immunohistochemistry, as above. CRF was generously provided by Dr. J. Rivier (Salk Institute).
# Mice were perfused with 4% paraformaldehyde, as previously described (Bittencourt and Sawchenko, 2000). 30 μm-thick frozen sections were cut on a sliding microtome and stored at −20° C. in cryoprotectant solution (20% glycerol and 30% ethylene glycol in 0.1 M phosphate buffer) until use. Free-floating sections containing the hippocampus were used to detect tau-P with PHF-1 (1:500) in mouse tissues using Mouse-on-Mouse Immunodetection Kit reagents (Vector, Burlingame, Calif.) to avoid detection of endogenous mouse immunoglobulin. Endogenous peroxidase was quenched with 0.3% hydrogen peroxide, followed by 1% sodium borohydride to reduce free aldehydes. Reaction product was developed using a nickel-enhanced glucose oxidase method (Shu et al., 1988).
# To determine whether CRF is capable of independently eliciting hippocampal tau-P, wt and CRF-R-deficient mice were implanted with lateral ventricular cannulae for icy injection. Resultant PHF-1 immunoreactivity was examined 40 min after administration of CRF (0.5 μg in 5 μl) or vehicle (FIG. 4B). […] In contrast to stress effects, however, no labeling of pyramidal neurons or their processes was observed after icy CRF injections.
# [6] = test system: interstitial fluid levels of Aβ; settings: central CRF administration; APP transgenic mice; Kang et al., 2007; cited from earlier work
molecule,measurement,setting,value
"CCC(CC)c1cc(C)nn2c(-c3sc(N4CCOCC4)nc3Cl)c(C)nc12 [MTIP, 3-(4-Chloro-2-Morpholin-4-yl-Thiazol-5-yl)-8-(1-Ethylpropyl)-2,6-Dimethyl-Imidazo[1,2b]Pyridazine]",solubility,[1],favorable solubility
same,ability to cross the BBB,[2],has the ability to cross the BBB
CCCCN(CC)c1nc(C)nc2c1c(C)c(C)n2-c1c(C)cc(C)cc1C [antalarmin],stress-induced increments in tau phosphorylation at the AT8 and PHF-1 sites,"[3]; antalarmin 20 mg/kg ip 20 min before 30 min acute restraint, hippocampal extracts 20 min post-stress",prevented stress-induced increments in phosphorylation at both sites; also recorded: blocked the stress-induced increment
same,basal levels of tau-P at the AT8 or PHF-1 sites,"[3]; antalarmin 20 mg/kg ip, unstressed mice, hippocampal extracts, relative to untreated controls",Neither antalarmin nor the vehicle used for its administration significantly altered basal levels of tau-P; also recorded: did not affect basal levels of phosphorylation
same,density of plaques (change by antagonist treatment),"[4]; both stressed and unstressed PS/APP mice, cerebral cortex",significantly reduced
same,density of plaques in cortex and hippocampus,[4]; stressed (CVS) PS/APP mice,2.49 /mm^2
same,density of plaques in cortex and hippocampus,[4]; unstressed PS/APP mice,1.15 /mm^2
"CRF: synthetic mouse/human corticotropin-releasing factor peptide, injected icv (SEEPPISLDLTFHLLREVLEMARAEQLAQQAHSNRKLMEII)",hippocampal tau-P (PHF-1 labeling) after icv CRF,[5]; CRF-R1-/- mice,comparable to the low level seen in saline-injected controls
same,hippocampal tau-P (PHF-1 immunoreactivity) after icv CRF,[5]; CRF-R2-/- mice,robust increases in hippocampal tau-P
same,hippocampal tau-P (PHF-1 immunoreactivity) after icv CRF,[5]; wt mice,robust increases in hippocampal tau-P
same,interstitial fluid levels of Aβ,[6],can increase interstitial fluid levels of Aβ
